Experimental data as given in patent US6503935B1, “Imidazoles and related compounds as α1A agonists” (Abbott Laboratories, priority 1998, dated 2003).
pKi: −log10 of the molar value. Structures can show the parent of a compound that is named as a salt. Where two headings read alike, the source gives them in different places.

Tests used:
[1] = target: T1, α1A (rat submaxillary gland) (Rattus norvegicus, UniProt P43140); experiment: Radioligand binding with [3H]-prazosin, α1A
T1 construct: α1A (rat submaxillary gland); from tissue; host or cells: rat submaxillary gland
T1 sequence (P43140 1-466): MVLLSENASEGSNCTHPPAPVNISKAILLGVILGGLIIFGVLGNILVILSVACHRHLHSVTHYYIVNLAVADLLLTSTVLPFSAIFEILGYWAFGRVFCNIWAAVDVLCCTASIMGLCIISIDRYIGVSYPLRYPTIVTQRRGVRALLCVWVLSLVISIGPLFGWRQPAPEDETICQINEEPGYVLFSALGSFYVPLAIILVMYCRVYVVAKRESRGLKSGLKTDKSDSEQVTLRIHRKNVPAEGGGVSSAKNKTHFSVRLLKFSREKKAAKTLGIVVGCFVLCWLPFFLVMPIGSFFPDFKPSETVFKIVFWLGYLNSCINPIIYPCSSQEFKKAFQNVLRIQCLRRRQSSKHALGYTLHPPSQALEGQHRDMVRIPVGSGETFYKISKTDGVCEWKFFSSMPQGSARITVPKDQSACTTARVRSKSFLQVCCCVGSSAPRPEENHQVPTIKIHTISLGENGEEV
How it was run: (§1)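 Radioligand binding with [3H]-prazosin: α1A from rat submaxillary gland; α1b hamster receptor and α1d rat receptor, each expressed in mouse fibroblasts.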

α1A (rabbit urethra) = target: T2, α1A (rabbit urethra) (Oryctolagus cuniculus, UniProt O02824); experiment: Agonist contraction of smooth muscle tissue, rabbit urethra; format: cell-based; details: rabbit urethra; read-out: Agonist Tissue Response (pD2) α1A (rab ureth) (converted)
T2 construct: tested for α1A functional activity using rabbit urethra; from tissue; host or cells: rabbit urethra
T2 sequence (O02824 1-466): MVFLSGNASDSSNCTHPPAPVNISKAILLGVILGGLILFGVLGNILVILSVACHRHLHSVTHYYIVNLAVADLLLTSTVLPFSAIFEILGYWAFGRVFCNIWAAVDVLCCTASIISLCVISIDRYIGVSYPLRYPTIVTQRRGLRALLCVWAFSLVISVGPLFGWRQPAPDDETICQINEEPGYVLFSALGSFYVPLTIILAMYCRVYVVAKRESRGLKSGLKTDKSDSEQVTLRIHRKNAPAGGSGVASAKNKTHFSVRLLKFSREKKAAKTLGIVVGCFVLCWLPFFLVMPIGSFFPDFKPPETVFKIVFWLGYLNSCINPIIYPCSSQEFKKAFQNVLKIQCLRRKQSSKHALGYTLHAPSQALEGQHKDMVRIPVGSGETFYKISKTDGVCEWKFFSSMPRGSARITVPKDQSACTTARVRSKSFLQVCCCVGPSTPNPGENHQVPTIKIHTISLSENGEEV
Procedure: Most of the compounds were tested for α1A functional activity using rabbit urethra as follows. Female New Zealand white rabbits (2.0-3.5 Kg) were sedated with CO2 and decapitated. […] Subsequent experimental conditions were as described above for the other tissues. Agonist concentration response curves were cumulative except for the vas deferens assay in which the transient response made such measurements impractical.

Anesthetized Dogs [2] = experiment: Intraurethral pressure (IUP) in anesthetized dogs; format: in vivo, dog; details: anesthetized female dogs, iv
From the text: (§2) In vivo Functional Assays-Assessment of Intrurethral Pressure (IUP) and Mean Arterial Pressure (MAP) in Anesthetized Dogs
(§3) Female dogs (Marshall Farms, North Rose, N.Y.) greater that 2 years of age and weighing between 12 and 15 kg were used in these studies. At least 2 weeks prior to any agonist dosing, dogs were instrumented for the chronic measurement of arterial blood pressure by implanting a telemetry transducer/transmitter (TA11PA-C40, Data Sciences International, St. Paul, Minn.) into a carotid artery.
(§4) On the test day, dogs fasted since the previous afternoon were pre-anesthetized with thiopental sodium 15 mg/kg i.v. (Pentothal™, Abbott) and intubated. Anesthesia was maintained by allowing the dog to spontaneously breathe a mixture of isoflurane (2.5 to 3 volume %) and oxygen delivered by a Narkomed Standard anesthesia system (North American Drager, Telford, Pa.). An Abbocath-T™ i.v. catheter (18-G, Abbott) was inserted into the cephalic vein for the administration of agonists. A telemetry receiver (RA1310, DataSciences) was placed under the head of each dog and was interfaced to a computerized data acquisition system (Modular Instruments Inc.(MI2), Malvern, Pa.) which allowed for the continuous calibrated recording of arterial blood pressure which was electronically filtered to determine its mean value (MAP).
(§5) Dogs with chronic telemetry implants anesthetized as described above were placed in dorsal recumbency and a balloon catheter was inserted into the urethral orifice and advanced approximately 15 cm until the tip was well inside the bladder. The balloon was then inflated with 1 ml of room air and the catheter slowly withdrawn until resistance (corresponding to the bladder neck) was evident. The balloon was then deflated and the catheter withdrawn an additional 2 cm. The balloon was then reinflated and its catheter port connected to a Gould Statham P23Dd pressure transducer interfaced to a computerized data acquisition system (Modular Instruments, Inc., Malvern, Pa.) for the measurement of intraurethral pressure. Increasing iv doses of test agonists were administered and the maximum effect of each dose on IUP was recorded. The effect of each dose was allowed to return to baseline before the next dose was given.
(§6) From the resulting dose response curve, an ED5 value, for the dose causing a maximum increase in IUP of 5 mm Hg, could be estimated. An ED20 value for the dose causing a maximum increase in MAP of 20 mm Hg could also be estimated. A selectivity ratio of MAP ED20 vs. IUP ED5 was calculated.

Anesthetized Dogs [3] = experiment: Mean arterial pressure (MAP) in anesthetized dogs; format: in vivo, dog; details: iv dose causing a maximum increase in MAP of 20 mm Hg, anesthetized female dogs
From the text: as §2, §3, §4, §5, §6

Anesthetized Dogs [4] = experiment: Intraurethral pressure (IUP) in anesthetized dogs; format: in vivo, dog; details: Canis lupus familiaris; iv dose causing a maximum increase in IUP of 5 mm Hg, anesthetized female dogs; read-out: Mean IUP ED5
[5] = target: T3, α1b (hamster receptor expressed in mouse fibroblasts) (Mesocricetus auratus, UniProt P18841); experiment: Radioligand binding with [3H]-prazosin, α1b; details: read-out: Radioligand Binding Ki α1b (Hamster)
T3 construct: expressed in transfected cells; host or cells: mouse fibroblasts
T3 sequence (P18841 1-515): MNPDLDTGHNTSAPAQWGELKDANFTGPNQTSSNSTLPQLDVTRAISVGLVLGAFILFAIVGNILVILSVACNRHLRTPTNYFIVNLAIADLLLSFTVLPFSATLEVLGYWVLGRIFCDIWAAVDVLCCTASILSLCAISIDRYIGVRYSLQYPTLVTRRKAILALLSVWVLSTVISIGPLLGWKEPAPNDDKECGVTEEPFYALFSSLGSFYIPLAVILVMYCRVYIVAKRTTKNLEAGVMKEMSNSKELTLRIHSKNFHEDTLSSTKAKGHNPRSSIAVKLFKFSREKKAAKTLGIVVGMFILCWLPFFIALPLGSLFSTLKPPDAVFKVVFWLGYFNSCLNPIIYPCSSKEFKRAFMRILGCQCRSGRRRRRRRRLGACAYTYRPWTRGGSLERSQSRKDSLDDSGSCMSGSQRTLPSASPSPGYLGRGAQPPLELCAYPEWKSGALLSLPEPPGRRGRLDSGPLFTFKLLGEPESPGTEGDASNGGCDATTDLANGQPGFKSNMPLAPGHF
Procedure: For purposes of discussing α1 adrenoceptor subtypes, the IUPHAR convention of using lower case letters to define molecular clones and upper case letters to indicate pharmacologically defined adrenoceptors has been followed. Compounds of formula I were evaluated in radioligand binding assays specific for α1A (rat submaxillary gland), α1b (hamster receptor expressed in mouse fibroblasts) and α1d (rat receptor expressed in mouse fibroblasts) using [^3H]-prazosin as the radioligand as described in Knepper, et al. J. Pharm.

[6] = target: T4, α1d (rat receptor expressed in mouse fibroblasts) (Rattus norvegicus, UniProt P23944); experiment: Radioligand binding with [3H]-prazosin, α1d; details: read-out: Radioligand Binding Ki α1d (Rat)
T4 construct: expressed in transfected cells; host or cells: mouse fibroblasts
T4 sequence (P23944 1-561): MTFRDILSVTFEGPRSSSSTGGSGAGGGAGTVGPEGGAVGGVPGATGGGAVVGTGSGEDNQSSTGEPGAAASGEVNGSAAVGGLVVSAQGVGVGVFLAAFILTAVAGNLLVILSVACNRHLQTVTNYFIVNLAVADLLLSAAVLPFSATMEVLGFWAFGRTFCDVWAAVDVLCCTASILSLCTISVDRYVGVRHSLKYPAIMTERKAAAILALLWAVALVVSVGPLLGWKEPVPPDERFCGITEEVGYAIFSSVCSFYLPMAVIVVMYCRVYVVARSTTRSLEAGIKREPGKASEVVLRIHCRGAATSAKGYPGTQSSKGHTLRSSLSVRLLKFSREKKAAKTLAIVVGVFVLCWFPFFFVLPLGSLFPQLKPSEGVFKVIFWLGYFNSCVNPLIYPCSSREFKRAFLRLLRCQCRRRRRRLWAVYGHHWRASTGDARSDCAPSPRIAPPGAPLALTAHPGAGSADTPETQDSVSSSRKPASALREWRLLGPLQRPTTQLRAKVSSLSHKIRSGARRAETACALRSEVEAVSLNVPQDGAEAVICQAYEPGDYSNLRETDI
How it was run: as §1

[7] = target: T5, α1A (rat epididymal vas deferens) (Rattus norvegicus, UniProt P43140); experiment: cell-based; details: rat epididymal vas deferens (values marked *); read-out: Agonist Tissue Response (pD2) α1A, test performed using rat epididymal vas deferens (converted)
T5 sequence (P43140 1-466): T1 sequence (P43140 1-466)

α1D (rat aorta) = target: T6, α1D (rat aorta) (Rattus norvegicus, UniProt P23944); experiment: Agonist contraction of smooth muscle tissue, rat aorta; format: cell-based; details: read-out: Agonist Tissue Response (pD2) α1D (rat aorta) (converted)
T6 construct: α1B (rat spleen) and α1D (rat aorta) receptors; from tissue; host or cells: rat aorta strips, endothelium removed
T6 sequence (P23944 1-561): T4 sequence (P23944 1-561)

α1B (rat spleen) = target: T7, α1B (rat spleen) (Rattus norvegicus, UniProt P15823); experiment: Agonist contraction of smooth muscle tissue, rat spleen; format: cell-based; details: read-out: Agonist Tissue Response (pD2) α1B (rat spleen) (converted)
T7 construct: α1B (rat spleen) and α1D (rat aorta) receptors; from tissue; host or cells: rat spleen
T7 sequence (P15823 1-515): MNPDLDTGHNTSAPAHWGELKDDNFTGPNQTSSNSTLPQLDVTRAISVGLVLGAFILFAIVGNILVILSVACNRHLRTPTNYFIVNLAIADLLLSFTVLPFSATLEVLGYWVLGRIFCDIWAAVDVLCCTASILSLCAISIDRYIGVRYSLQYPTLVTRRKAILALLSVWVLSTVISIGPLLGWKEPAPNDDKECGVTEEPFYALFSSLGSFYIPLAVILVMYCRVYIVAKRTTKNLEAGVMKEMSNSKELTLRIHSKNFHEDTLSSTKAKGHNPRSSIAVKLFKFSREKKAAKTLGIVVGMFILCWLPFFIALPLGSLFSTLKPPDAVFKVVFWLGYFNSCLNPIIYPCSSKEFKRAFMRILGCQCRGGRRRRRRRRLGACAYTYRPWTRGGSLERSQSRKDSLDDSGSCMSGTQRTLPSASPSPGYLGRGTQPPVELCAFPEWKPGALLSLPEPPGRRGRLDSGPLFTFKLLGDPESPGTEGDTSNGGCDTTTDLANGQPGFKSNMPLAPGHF

SMILES	melting point	pKi [1]	pKi [6]	other results
CN(c1cccc2c1CCCC2c1c[nH]cn1)S(C)(=O)=O (stereo not drawn) (as salt: maleate) [Example 15, N-[5,6,7,8-tetrahydro-5-(1H-imidazol-4-yl)-1-naphthalenyl]-N-methylmethanesulfonmamide, maleate]	146 to 147 °C			
O=C(Nc1cccc2c1CCCC2c1c[nH]cn1)C(F)(F)F (stereo not drawn) (as salt: maleate) [Example 17, 2,2,2-trifluoro-N-[5-(1H-imidazol-4-yl)-5,6,7,8-tetahydro-1-naphthalenyl]acetamide, maleate]	181 to 182 °C			
COc1ccc(NS(C)(=O)=O)c2c1C(c1c[nH]cn1)CCC2 (stereo not drawn) (as salt: maleate) [Example 26, N-[5,6,7,8-tetrahydro-(1H-imidazol-4-yl)-4-methoxyy-1-naphthalenyl]methanesulfonamide, maleate]	181 to 184 °C			
C=C(c1cccc(NS(=O)(=O)CC)c1)c1c[nH]cn1 (as salt: maleate) [Example 45, N-{3-[1-(1H-imidazol-4-yl)vinyl]phenyly}ethanesulfonamide, maleate]	151 to 155 °C			
O=S(=O)(CC(F)(F)F)Nc1cccc2c1CCCC2c1c[nH]cn1 (single isomer, unassigned; (+)) [Example 36, (+)-N-[5,6,7,8-tetrahydro-5-(1H-imidazol-4-yl)-1-naphthalenyl]-2,2,2-trifluoroethanesulfonamide]				pKi ([1]; rat submaxillary gland, [3H]-prazosin): 6.91; EC50 (α1A (rabbit urethra)): 1.86 µM; Mean Selectivity Ratio MAP ED20/IUP ED5 (Anesthetized Dogs [2]): 3.6; Mean MAP ED20 (Anesthetized Dogs [3]): 508 nmol/kg; ED (5 mmHg IUP increase) (Anesthetized Dogs [4]): 0.156 µmol/kg
CS(=O)(=O)Nc1c(O)ccc2c1CCCC2c1c[nH]cn1 (stereo not drawn) [Example 2, N-[2-hydroxy-5-(1H-imidazol-4-yl)-5,6,7,8-tetrahydro-1-naphthalenyl]methanesulfonamide, hydrochloride]		7.44	5.90	pKi [5]: 5.60; EC50 [7]: 0.017 µM; EC50 (α1D (rat aorta)): 1.91 µM
CCn1cnc(C2CCCc3c2ccc(O)c3NS(C)(=O)=O)c1.Cl (stereo not drawn) [Example 6, N-[5-(1-ethyl-1H-imidazol-4-yl)-2-hydroxy-5,6,7,8-tetrahydro-1-naphthalenyl]methanesulfonamide, hydrochloride]	230 to 234 °C (dec.)	5.68	4.78	
CCCn1cnc(C2CCCc3c2ccc(O)c3NS(C)(=O)=O)c1 (stereo not drawn) [Example 7, N-[2-hydroxy-5-(1-propyl-1H-imidazol-4-yl)-5,6,7,8-tetrahydro-1-naphthalenyl]methanesulfonamide, hydrochloride]		6.18	5.42	EC50 [7]: > 1000 µM; EC50 (α1B (rat spleen)): > 1000 µM
